Laboratory results published in ChEMBL document CHEMBL1137314, “Small-molecule inhibitors of the MDM2-p53 protein-protein interaction based on an isoindolinone scaffold” (J Med Chem, 2006).
Active and inactive are the calls of the source. The calls are words filed in the database; no cut-off is given here.

These compounds were tested on SJSA-1 (assay: Increase of p53 protein level in SJSA cell line by Western blot analysis). Details: Homo sapiens.
Assay type: functional, cell-based

SMILES | Activity
CCCN1C(=O)c2ccccc2C1(OCc1cc(OC)c(O)c(OC)c1)c1ccc(Cl)cc1 (stereo unspecified) | inactive
O=C1c2ccccc2C(OCCCO)(c2ccc(Cl)cc2)N1Cc1ccccc1 (stereo unspecified) | inactive

These compounds were tested on SJSA-1 (assay: Increase of p21 protein level in SJSA cell line by Western blot analysis). Details: Homo sapiens.
Assay type: functional, cell-based

SMILES | Activity
CCCN1C(=O)c2ccccc2C1(OCc1cc(OC)c(O)c(OC)c1)c1ccc(Cl)cc1 (stereo unspecified) | Dose-dependent effect
O=C1c2ccccc2C(OCCCO)(c2ccc(Cl)cc2)N1Cc1ccccc1 (stereo unspecified) | Dose-dependent effect

Each compound was assayed on SJSA-1 (assay: Increase of MDM2 protein level in SJSA cell line by Western blot analysis). Details: Homo sapiens.
Assay type: functional, cell-based

SMILES | Activity
CCCN1C(=O)c2ccccc2C1(OCc1cc(OC)c(O)c(OC)c1)c1ccc(Cl)cc1 (stereo unspecified) | Dose-dependent effect
O=C1c2ccccc2C(OCCCO)(c2ccc(Cl)cc2)N1Cc1ccccc1 (stereo unspecified) | Dose-dependent effect

These compounds were tested against Tumour suppressor p53/oncoprotein Mdm2 (Homo sapiens) (UniProt P04637+Q00987) (assay: Induction of p53 dependent transcription in SJSA cell line by reporter gene assay). Details: SJSA-1.
Chain of Tumour suppressor p53/oncoprotein Mdm2 (Homo sapiens) (P04637 whole entry, looked up): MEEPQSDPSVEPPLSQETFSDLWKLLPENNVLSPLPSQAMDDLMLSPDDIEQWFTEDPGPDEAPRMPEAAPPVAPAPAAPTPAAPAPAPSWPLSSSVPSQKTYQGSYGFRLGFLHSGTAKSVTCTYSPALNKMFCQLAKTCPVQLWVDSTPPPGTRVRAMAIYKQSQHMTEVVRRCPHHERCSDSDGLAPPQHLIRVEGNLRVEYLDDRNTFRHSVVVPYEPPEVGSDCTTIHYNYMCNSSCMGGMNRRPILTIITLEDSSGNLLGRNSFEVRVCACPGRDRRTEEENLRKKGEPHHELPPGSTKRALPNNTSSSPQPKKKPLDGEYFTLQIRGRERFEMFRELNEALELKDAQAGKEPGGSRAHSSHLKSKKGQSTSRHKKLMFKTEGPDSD
Chain of Tumour suppressor p53/oncoprotein Mdm2 (Homo sapiens) (Q00987 whole entry, looked up): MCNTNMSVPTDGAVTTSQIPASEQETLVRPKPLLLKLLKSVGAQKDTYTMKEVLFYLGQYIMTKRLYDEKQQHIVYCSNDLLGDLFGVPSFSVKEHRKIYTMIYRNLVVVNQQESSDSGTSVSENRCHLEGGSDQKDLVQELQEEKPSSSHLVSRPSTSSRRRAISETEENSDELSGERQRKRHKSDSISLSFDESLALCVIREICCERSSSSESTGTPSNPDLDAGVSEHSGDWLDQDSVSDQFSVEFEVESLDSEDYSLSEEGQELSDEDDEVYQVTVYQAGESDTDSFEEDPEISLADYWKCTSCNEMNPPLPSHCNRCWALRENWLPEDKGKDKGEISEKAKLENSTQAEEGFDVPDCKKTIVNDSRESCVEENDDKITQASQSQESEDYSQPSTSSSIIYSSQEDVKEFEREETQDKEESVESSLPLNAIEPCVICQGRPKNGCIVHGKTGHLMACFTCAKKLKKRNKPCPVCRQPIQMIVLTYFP
Assay type: functional, cell-based

Activity | SMILES
Dose-dependent effect | CCCN1C(=O)c2ccccc2C1(OCc1cc(OC)c(O)c(OC)c1)c1ccc(Cl)cc1 (stereo unspecified)
Dose-dependent effect | O=C1c2ccccc2C(OCCCO)(c2ccc(Cl)cc2)N1Cc1ccccc1 (stereo unspecified)

Each compound was assayed against Tumour suppressor p53/oncoprotein Mdm2 (Homo sapiens, UniProt Q00987) (assay: Inhibition of p53-MDM2 interaction by ELISA). Details: not given.
Chain of Tumour suppressor p53/oncoprotein Mdm2 (P04637 whole entry): as the sequence (P04637 whole entry, looked up) above
Chain of Tumour suppressor p53/oncoprotein Mdm2 (Q00987 whole entry): as the sequence (Q00987 whole entry, looked up) above
Assay type: protein assay

SMILES | IC50 [µM]
CN(CCOC1(c2ccccc2)c2ccccc2C(=O)N1Cc1ccccc1)c1ccc(C=O)cc1 (stereo unspecified) | 191
O=C1c2ccccc2C(=O)N1CCCOC1(c2ccccc2)c2ccccc2C(=O)N1Cc1ccccc1 (stereo unspecified) | 189
CCCNC1(c2ccccc2)c2ccccc2C(=O)N1Cc1ccccc1 (stereo unspecified) | 200
Cc1ccc([N+](=O)[O-])c(COC2(c3ccccc3)c3ccccc3C(=O)N2Cc2ccccc2)c1 (stereo unspecified) | 232
O=C1c2ccccc2C(OCCc2ccccc2)(c2ccccc2)N1Cc1ccccc1 (stereo unspecified) | > 500
COc1ccc(CCOC2(c3ccccc3)c3ccccc3C(=O)N2Cc2ccccc2)cc1OC (stereo unspecified) | 311
CCCOC1(c2ccccc2)c2ccccc2C(=O)N1CCCC(OC)OC (stereo unspecified) | 70
CCCN1C(=O)c2ccccc2C1(OCc1cc([N+](=O)[O-])c(C)c([N+](=O)[O-])c1)c1ccc(OCOCC[Si](C)(C)C)cc1 (stereo unspecified) | 103
C=CC(=O)OCCOC1(c2ccccc2)c2ccccc2C(=O)N1Cc1ccccc1 (stereo unspecified) | 439
CCCN1C(=O)c2ccccc2C1(OCCN1CCNC1=O)c1ccc(C(C)(C)C)cc1 (stereo unspecified) | 74.3
O=C1c2ccccc2C(OCc2ccc(Cl)c([N+](=O)[O-])c2)(c2ccccc2)N1Cc1ccccc1 (stereo unspecified) | 206
O=C1CCCN1CCOC1(c2ccccc2)c2ccccc2C(=O)N1Cc1ccccc1 (stereo unspecified) | 393
NC(=O)COC1(c2ccccc2)c2ccccc2C(=O)N1Cc1ccccc1 (stereo unspecified) | > 500
CCCOC1(c2ccccc2)c2ccccc2C(=O)N1CCO (stereo unspecified) | > 500
COc1ccc([C@@H](O)COC2(c3ccccc3)c3ccccc3C(=O)N2CCCO)cc1 (stereo partly specified) | 326
O=C(NCCOC1(c2ccccc2)c2ccccc2C(=O)N1Cc1ccccc1)c1ccncc1 (stereo unspecified) | 278

SMILES | IC50 [µM]
CCCCc1ncc(COC2(c3ccccc3)c3ccccc3C(=O)N2Cc2ccccc2)[nH]1 (stereo unspecified) | 78
O=C1c2ccccc2C(OCc2cccc(O)c2)(c2ccccc2)N1Cc1ccccc1 (stereo unspecified) | 58
C=C(C)C(=O)OCCNC1(c2ccccc2)c2ccccc2C(=O)N1Cc1ccccc1 (stereo unspecified) | 353
C[Si](C)(C)CCOCOc1ccc(C2(OCCCO)c3ccccc3C(=O)N2Cc2ccccc2)cc1 (stereo unspecified) | 476
CCCOC1(c2ccccc2)c2ccccc2C(=O)N1Cc1ccccc1 (stereo unspecified) | > 200
O=C1c2ccccc2C(=O)N1CCOC1(c2ccccc2)c2ccccc2C(=O)N1Cc1ccccc1 (stereo unspecified) | 152
C=CCNC(=S)NCCOC1(c2ccccc2)c2ccccc2C(=O)N1Cc1ccccc1 (stereo unspecified) | 408
CC(=O)NCCNC1(c2ccccc2)c2ccccc2C(=O)N1Cc1ccccc1 (stereo unspecified) | > 500
CCCN1C(=O)c2ccccc2C1(OCCNC(=O)c1ccccc1O)c1ccc(C(C)(C)C)cc1 (stereo unspecified) | 70.1
COC(=O)C(Cc1ccc(O)cc1)N1C(=O)c2ccccc2C1(OCCN(CCC#N)c1ccccc1)c1ccccc1 (stereo unspecified) | 88
O=C1c2ccccc2C(OCc2ccc(O)cc2)(c2ccccc2)N1Cc1ccccc1 (stereo unspecified) | 79
O=C(NCCOC1(c2ccccc2)c2ccccc2C(=O)N1Cc1ccccc1)c1ccc(O)cc1O (stereo unspecified) | 96
COC(=O)[C@@H](C)COC1(c2ccccc2)c2ccccc2C(=O)N1Cc1ccccc1 (stereo partly specified) | 330
CCCOC1(c2ccccc2)c2ccccc2C(=O)N1CCC (stereo unspecified) | > 200
O=C1c2ccccc2C(NCC(O)c2cccc(O)c2)(c2ccccc2)N1Cc1ccccc1 (stereo unspecified) | 84

Continued, values first:

IC50 [µM] | SMILES
221 | O=C1c2ccccc2C(OCCOc2ccccc2O)(c2ccccc2)N1Cc1ccccc1 (stereo unspecified)
281 | CC(=O)NCCOC1(c2ccccc2)c2ccccc2C(=O)N1Cc1ccccc1 (stereo unspecified)
> 500 | CCOC(=O)CCC(NC1(c2ccccc2)c2ccccc2C(=O)N1Cc1ccccc1)C(=O)OCC (stereo unspecified)
181 | COc1ccc([C@@H](O)COC2(c3ccccc3)c3ccccc3C(=O)N2Cc2ccco2)cc1 (stereo partly specified)
409 | O=C1c2ccccc2C(OCCNC(=O)C(F)(F)F)(c2ccccc2)N1Cc1ccccc1 (stereo unspecified)
490 | COCCOC1(c2ccccc2)c2ccccc2C(=O)N1Cc1ccccc1 (stereo unspecified)
> 500 | O=C1c2ccccc2C(OCc2ccco2)(c2ccccc2)N1Cc1ccccc1 (stereo unspecified)
70.2 | CCCN1C(=O)c2ccccc2C1(OCc1cc2c(cc1[N+](=O)[O-])OCO2)c1ccc(C(C)(C)C)cc1 (stereo unspecified)
275 | COC(=O)C(Cc1ccc(O)cc1)N1C(=O)c2ccccc2C1(OCCn1c([N+](=O)[O-])cnc1C)c1ccccc1 (stereo unspecified)
> 500 | O=C1c2ccccc2C(NCCO)(c2ccccc2)N1Cc1ccccc1 (stereo unspecified)
185 | CC(NC1(c2ccccc2)c2ccccc2C(=O)N1Cc1ccccc1)C(O)c1ccc(O)cc1 (stereo unspecified)
85 | O=C1c2ccccc2C(NC(CO)C(O)c2ccccc2)(c2ccccc2)N1Cc1ccccc1 (stereo unspecified)
413 | CCCOC1(c2ccccc2)c2ccccc2C(=O)N1Cc1ccc(OC)cc1 (stereo unspecified)
90 | CCCOC1(c2ccccc2)c2ccccc2C(=O)N1[C@H](C(=O)OC)c1ccc(O)cc1 (stereo partly specified)
380 | COC(=O)C(Cc1ccc(O)cc1)N1C(=O)c2ccccc2C1(OCCOC(C)=O)c1ccccc1 (stereo unspecified)
> 500 | O=C1c2ccccc2C(OCCN2CCOCC2)(c2ccccc2)N1Cc1ccccc1 (stereo unspecified)

IC50 [µM] | SMILES
> 500 | COC(=O)CCNC1(c2ccccc2)c2ccccc2C(=O)N1Cc1ccccc1 (stereo unspecified)
79 | CCCOC1(c2ccccc2)c2ccccc2C(=O)N1[C@@H](CCCCN)C(=O)OC (stereo partly specified)
64.3 | CCCN1C(=O)c2ccccc2C1(OCc1[nH]cnc1C)c1ccc(C(C)(C)C)cc1 (stereo unspecified)
69.7 | CCCN1C(=O)c2ccccc2C1(OCCc1ccc(O)cc1)c1ccc(C(C)(C)C)cc1 (stereo unspecified)
334 | O=C1c2ccccc2C(OC/C=C/c2ccccc2)(c2ccccc2)N1Cc1ccccc1 (stereo unspecified)
243 | Cc1cccc(N(CCC#N)CCOC2(c3ccccc3)c3ccccc3C(=O)N2Cc2ccccc2)c1 (stereo unspecified)
345 | O=C1c2ccccc2C(OCCS(=O)(=O)O)(c2ccccc2)N1Cc1ccccc1 (stereo unspecified)
97 | O=Cc1ccc(COC2(c3ccccc3)c3ccccc3C(=O)N2Cc2ccccc2)o1 (stereo unspecified)
227 | O=C1c2ccccc2C(NCC(O)c2ccc(O)cc2)(c2ccccc2)N1Cc1ccccc1 (stereo unspecified)
103 | C=C(C)C(=O)OCCN1C(=O)c2ccccc2C1(N[C@@H](CO)[C@@H](O)c1ccccc1)c1ccccc1 (stereo partly specified)
85 | O=C1c2ccccc2C(N[C@@H](CO)[C@@H](O)c2ccccc2)(c2ccccc2)N1Cc1ccccc1 (stereo partly specified)
284 | O=C1CCC(=O)N1CCOC1(c2ccccc2)c2ccccc2C(=O)N1Cc1ccccc1 (stereo unspecified)
190 | N#CCCNC1(c2ccccc2)c2ccccc2C(=O)N1Cc1ccccc1 (stereo unspecified)
290 | CCCN1C(=O)c2ccccc2C1(OCCS(C)(=O)=O)c1ccc(C(C)(C)C)cc1 (stereo unspecified)
> 500 | COC(=O)COC1(c2ccccc2)c2ccccc2C(=O)N1Cc1ccccc1 (stereo unspecified)
284 | O=C1c2ccccc2C(OCc2cccc([N+](=O)[O-])c2)(c2ccccc2)N1Cc1ccccc1 (stereo unspecified)
